Experiments:
[1] = system: pubertal adolescents with obesity; conditions: 56-week trial, liraglutide in addition to lifestyle therapy; 95% CI -0.37, -0.08; P = 0.002; cited from earlier work
[2] = Population pharmacokinetic analysis of liraglutide (one-compartment model, NONMEM FOCE-I; plasma ELISA); assay type: in vivo, human; conditions: for Absorption rate constant KA / Apparent volume of distribution V/F: parameter fixed
Protocol: As the focus of the analysis was a comparison of different age populations, age was prespecified to be included initially as a categorical variable.
In trial 4180, Tanner staging (stages 2‐5) of adolescents was assessed by site staff trained in pubertal assessments. For females, assessments of breast and pubic hair development were made. For males, assessments of testicular volume (by orchidometer), penis development and pubic hair development were made. Prepubertal patients were not permitted in the trial.
The structural model was parameterized in terms of the following parameters: • ka (absorption rate constant) • CL/F (apparent clearance) • V/F (apparent volume of distribution)
The first‐order conditional estimation with interaction (FOCE‐I) method was used for the population pharmacokinetic analysis, implemented in the non‐linear mixed effects modelling (NONMEM) software.
An analysis of the influence of covariates on exposure was carried out including all tested covariates in one step, using a confirmatory approach,[32] and disregarding any interactions between age group and sex. Model development involved estimation of a base model without covariates and a full model including all predefined covariates. If any covariates without statistically significant effect could be excluded, the reduced model would be considered the final population pharmacokinetic model. The covariates were prespecified and based on earlier findings in phase 3 trials with adults as well as prior knowledge from smaller trials in children and adolescents.
Specific steady‐state exposures for individual participants were based on the full model, including all covariates, and derived from the subject‐specific post‐hoc CL/F estimates, the maintenance dose and the dose interval (24 hours): (6) Cavg=Dose/CL/F*24hours
The CIs for full model parameters were estimated using bootstrapping. For each investigated covariate, differences were considered relevant if the 90% CI of the estimated mean of the relative exposure fell outside the standard bioequivalence limits (0.80‐1.25).
Between‐subject variability was included for CL/F and V/F, assuming log‐normal distributions […]. Furthermore, CL/F and V/F were estimated using a full variance‐covariance matrix. No between‐subject variability was included for ka. Within‐subject variability (residual) was described by a proportional error model. Standard graphical quality analyses, including goodness‐of‐fit plots (Figure S1), were made during qualification of the pharmacokinetic model.

[3] = system: adolescents in trial 4180; design: species or system human; conditions: in vivo
Protocol: The analyses were conducted using response data at week 20 (phase 2 trial 1807), week 50 (phase 3a trial 1922) or week 56 (phase 3a trials 4180 and 1839) to align with the original analysis in adults. The appropriateness of using different trial lengths for the historical adult trials was evaluated by graphically exploring the weight loss longitudinally. This was deemed appropriate as the maximal effect on weight reduction was reached after 20 weeks of treatment and remained stable thereafter for the trials of longer duration. […] The two age groups differed in the placebo group response, with lower mean responses in adolescents; this difference was consistent across the exposure range as well. […] However, the effect of age group on the maximal effect in the model (Emax) was not significant in these analyses. […] Approximately 64% of the adolescents in the exposure‐response analysis grew more than 0.5 cm during the trial. Of these, some received liraglutide and some received placebo.

[4] = base pharmacokinetic model without covariates

## CCCCCCCCCCCCCCCC(=O)N[C@@H](CCC(=O)NCCCC[C@H](NC(=O)[C@H](C)NC(=O)[C@H](C)NC(=O)[C@H](CCC(N)=O)NC(=O)CNC(=O)[C@H](CCC(=O)O)NC(=O)[C@H](CC(C)C)NC(=O)[C@H](Cc1ccc(O)cc1)NC(=O)[C@H](CO)NC(=O)[C@H](CO)NC(=O)[C@@H](NC(=O)[C@H](CC(=O)O)NC(=O)[C@H](CO)NC(=O)[C@@H](NC(=O)[C@H](Cc1ccccc1)NC(=O)[C@@H](NC(=O)CNC(=O)[C@H](CCC(=O)O)NC(=O)[C@H](C)NC(=O)[C@@H](N)Cc1cnc[nH]1)[C@@H](C)O)[C@@H](C)O)C(C)C)C(=O)N[C@@H](CCC(=O)O)C(=O)N[C@@H](Cc1ccccc1)C(=O)N[C@H](C(=O)N[C@@H](C)C(=O)N[C@@H](Cc1c[nH]c2ccccc12)C(=O)N[C@@H](CC(C)C)C(=O)N[C@H](C(=O)N[C@@H](CCCNC(=N)N)C(=O)NCC(=O)N[C@@H](CCCNC(=N)N)C(=O)NCC(=O)O)C(C)C)[C@@H](C)CC)C(=O)O [liraglutide]
[1]
  BMI standard-deviation score (SDS), estimated treatment difference compared with placebo: −0.22
[2]; [4]
  Absorption rate constant KA: 0.0804 h⁻¹
  Apparent volume of distribution V/F: 13.1 L
[2]; final (full covariate) pharmacokinetic model, trials 4180, 3967, 3630, 4181, children, adolescents and adults with obesity, N = 176
  Absorption rate constant KA: 0.0813 h⁻¹
[2]; final pharmacokinetic model
  Body weight exponent on V/F (V-BW): 0.587
[2]; final pharmacokinetic model, reference subject adult female, 100 kg
  Apparent volume of distribution V/F: 13.8 L
[3]
  Average growth (height) during the trial: 1.4 cm

From PMC8519033 (Pediatric Obesity, 2021)
